{"source": "paper PMC3602154", "about": "(PLoS ONE, 2013)", "key": {"5-HT6": {"target": "5-HT6 (Homo sapiens, UniProt P50406)", "assay": "PDSP radioligand binding, serotonin receptor 5-HT6", "excerpt": "(§1) [17] and http://pdsp.med.unc.edu/UNC-CH%20Protocol%20Book.pdf."}, "Beta3": {"target": "Beta3 (Homo sapiens, UniProt P13945)", "assay": "PDSP radioligand binding, adrenoceptor ß3", "excerpt": "as §1"}, "DOR": {"target": "DOR (Homo sapiens, UniProt P41143)", "sequence (P41143 whole entry)": "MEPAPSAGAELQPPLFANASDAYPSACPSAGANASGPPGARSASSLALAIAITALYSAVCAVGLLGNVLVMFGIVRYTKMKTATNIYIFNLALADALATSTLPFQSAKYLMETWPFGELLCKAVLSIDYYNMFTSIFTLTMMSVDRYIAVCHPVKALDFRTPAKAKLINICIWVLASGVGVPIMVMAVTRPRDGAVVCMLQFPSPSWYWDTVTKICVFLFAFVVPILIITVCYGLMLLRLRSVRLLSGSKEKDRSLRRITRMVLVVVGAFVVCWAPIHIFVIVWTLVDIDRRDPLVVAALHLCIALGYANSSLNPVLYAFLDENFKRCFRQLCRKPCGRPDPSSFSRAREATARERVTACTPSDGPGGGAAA", "assay": "PDSP radioligand binding, opioid receptor DOR", "excerpt": "as §1"}, "Alpha2A": {"target": "T1, Alpha2A (Homo sapiens, UniProt P08913)", "T1 sequence (P08913 1-465)": "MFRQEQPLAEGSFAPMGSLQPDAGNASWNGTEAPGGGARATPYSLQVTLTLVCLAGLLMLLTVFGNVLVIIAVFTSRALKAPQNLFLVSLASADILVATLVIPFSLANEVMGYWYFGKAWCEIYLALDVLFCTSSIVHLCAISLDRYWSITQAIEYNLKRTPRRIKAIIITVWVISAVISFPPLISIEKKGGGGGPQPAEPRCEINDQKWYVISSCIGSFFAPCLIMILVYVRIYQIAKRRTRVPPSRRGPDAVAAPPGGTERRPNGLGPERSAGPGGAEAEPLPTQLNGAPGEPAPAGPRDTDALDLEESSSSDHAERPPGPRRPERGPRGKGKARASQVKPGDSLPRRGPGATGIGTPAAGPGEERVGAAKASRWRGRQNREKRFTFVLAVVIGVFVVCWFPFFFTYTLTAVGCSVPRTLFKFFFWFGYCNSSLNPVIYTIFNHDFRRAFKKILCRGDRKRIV", "assay": "PDSP radioligand binding, adrenoceptor α2A", "excerpt": "as §1"}, "H2": {"target": "H2 (Homo sapiens, UniProt P25021)", "sequence (P25021 whole entry)": "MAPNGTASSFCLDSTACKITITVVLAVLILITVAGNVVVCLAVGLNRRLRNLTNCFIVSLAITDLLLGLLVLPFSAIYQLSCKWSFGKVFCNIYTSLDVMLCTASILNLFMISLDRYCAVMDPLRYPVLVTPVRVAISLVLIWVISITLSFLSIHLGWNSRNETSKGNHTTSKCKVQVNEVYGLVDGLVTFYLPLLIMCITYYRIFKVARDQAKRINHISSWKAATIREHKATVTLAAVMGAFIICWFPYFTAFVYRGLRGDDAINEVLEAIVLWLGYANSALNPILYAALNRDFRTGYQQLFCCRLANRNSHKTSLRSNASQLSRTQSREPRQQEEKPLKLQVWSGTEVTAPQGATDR", "assay": "PDSP radioligand binding, histamine receptor H2", "excerpt": "as §1"}, "5-ht1e": {"target": "5-ht1e (Homo sapiens, UniProt P28566)", "sequence (P28566 whole entry, species assumed)": "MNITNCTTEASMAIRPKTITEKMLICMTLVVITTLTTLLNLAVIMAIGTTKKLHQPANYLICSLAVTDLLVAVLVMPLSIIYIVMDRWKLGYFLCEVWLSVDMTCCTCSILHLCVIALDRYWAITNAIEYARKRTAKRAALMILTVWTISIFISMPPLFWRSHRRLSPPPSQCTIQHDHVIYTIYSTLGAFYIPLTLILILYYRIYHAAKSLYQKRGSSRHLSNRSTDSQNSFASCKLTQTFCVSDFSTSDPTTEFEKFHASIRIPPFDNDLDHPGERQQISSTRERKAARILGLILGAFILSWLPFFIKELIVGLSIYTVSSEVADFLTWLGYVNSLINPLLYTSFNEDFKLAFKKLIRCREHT", "assay": "PDSP radioligand binding, serotonin receptor 5-HT1E", "excerpt": "as §1"}, "Sigma1": {"target": "Sigma1 (Homo sapiens, UniProt Q99720)", "sequence (Q99720 whole entry)": "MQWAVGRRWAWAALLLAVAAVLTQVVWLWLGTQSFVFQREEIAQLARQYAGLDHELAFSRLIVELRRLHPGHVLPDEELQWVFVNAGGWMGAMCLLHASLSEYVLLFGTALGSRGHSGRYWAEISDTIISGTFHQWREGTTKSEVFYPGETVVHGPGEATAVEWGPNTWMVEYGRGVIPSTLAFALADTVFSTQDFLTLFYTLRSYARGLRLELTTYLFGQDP", "assay": "PDSP radioligand binding, Sigma1", "excerpt": "as §1"}, "Beta2": {"target": "Beta2 (Homo sapiens, UniProt P07550)", "sequence (P07550 whole entry)": "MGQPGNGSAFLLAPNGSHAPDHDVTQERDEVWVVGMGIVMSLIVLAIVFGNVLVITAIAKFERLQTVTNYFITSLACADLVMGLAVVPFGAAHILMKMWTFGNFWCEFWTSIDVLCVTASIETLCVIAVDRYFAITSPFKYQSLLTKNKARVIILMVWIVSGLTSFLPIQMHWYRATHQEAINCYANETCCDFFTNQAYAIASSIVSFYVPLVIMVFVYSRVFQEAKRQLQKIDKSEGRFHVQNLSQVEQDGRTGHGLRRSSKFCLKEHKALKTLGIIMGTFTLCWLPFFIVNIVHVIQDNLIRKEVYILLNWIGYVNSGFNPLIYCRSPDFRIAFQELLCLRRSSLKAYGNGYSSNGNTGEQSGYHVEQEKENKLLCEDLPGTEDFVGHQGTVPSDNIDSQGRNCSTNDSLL", "assay": "PDSP radioligand binding, adrenoceptor ß2", "excerpt": "as §1"}, "M1": {"target": "T2, M1 (Homo sapiens, UniProt P11229)", "T2 sequence (P11229 1-460)": "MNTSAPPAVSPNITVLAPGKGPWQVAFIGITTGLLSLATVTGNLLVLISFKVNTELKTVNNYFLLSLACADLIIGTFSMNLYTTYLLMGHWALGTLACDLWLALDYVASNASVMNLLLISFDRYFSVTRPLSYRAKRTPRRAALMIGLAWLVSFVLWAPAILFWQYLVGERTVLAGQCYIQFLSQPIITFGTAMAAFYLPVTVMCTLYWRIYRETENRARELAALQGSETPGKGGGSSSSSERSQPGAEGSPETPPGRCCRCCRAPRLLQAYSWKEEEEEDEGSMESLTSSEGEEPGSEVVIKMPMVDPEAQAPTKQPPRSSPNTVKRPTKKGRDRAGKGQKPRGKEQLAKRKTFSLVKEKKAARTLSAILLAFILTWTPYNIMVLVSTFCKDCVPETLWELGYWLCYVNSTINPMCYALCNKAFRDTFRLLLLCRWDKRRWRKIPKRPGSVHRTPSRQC", "assay": "PDSP radioligand binding, muscarinic receptor M1", "excerpt": "as §1"}, "H3": {"target": "H3 (Homo sapiens, UniProt Q9Y5N1)", "sequence (Q9Y5N1 whole entry)": "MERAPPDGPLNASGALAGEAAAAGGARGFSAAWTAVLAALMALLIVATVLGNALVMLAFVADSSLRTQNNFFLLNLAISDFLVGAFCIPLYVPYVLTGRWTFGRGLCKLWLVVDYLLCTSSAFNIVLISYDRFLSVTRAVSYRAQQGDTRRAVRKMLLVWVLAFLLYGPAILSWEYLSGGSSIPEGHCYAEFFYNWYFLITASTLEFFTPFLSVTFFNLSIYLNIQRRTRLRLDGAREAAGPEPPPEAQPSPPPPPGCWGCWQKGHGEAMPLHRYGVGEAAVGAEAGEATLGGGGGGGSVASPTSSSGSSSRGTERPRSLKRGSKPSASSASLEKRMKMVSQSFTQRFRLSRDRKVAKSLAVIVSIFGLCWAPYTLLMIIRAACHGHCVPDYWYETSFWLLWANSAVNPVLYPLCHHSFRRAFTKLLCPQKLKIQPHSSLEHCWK", "assay": "PDSP radioligand binding, histamine receptor H3", "excerpt": "as §1"}, "H4": {"target": "H4 (Homo sapiens, UniProt Q9H3N8)", "sequence (Q9H3N8 whole entry)": "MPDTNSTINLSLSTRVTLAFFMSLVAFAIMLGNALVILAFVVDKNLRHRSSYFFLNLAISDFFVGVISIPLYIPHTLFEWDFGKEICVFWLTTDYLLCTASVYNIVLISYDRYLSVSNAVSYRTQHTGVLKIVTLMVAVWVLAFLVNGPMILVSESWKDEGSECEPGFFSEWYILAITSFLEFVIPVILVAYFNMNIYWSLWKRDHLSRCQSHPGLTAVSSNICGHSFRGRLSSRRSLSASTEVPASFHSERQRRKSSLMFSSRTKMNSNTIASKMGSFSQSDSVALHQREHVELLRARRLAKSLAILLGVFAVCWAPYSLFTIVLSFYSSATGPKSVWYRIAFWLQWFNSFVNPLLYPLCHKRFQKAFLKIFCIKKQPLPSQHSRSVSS", "assay": "PDSP radioligand binding, histamine receptor H4", "excerpt": "as §1"}, "A4B2": {"target": "A4B2 (Rattus norvegicus, UniProt P09483+P12390)", "sequence (P09483 31-630)": "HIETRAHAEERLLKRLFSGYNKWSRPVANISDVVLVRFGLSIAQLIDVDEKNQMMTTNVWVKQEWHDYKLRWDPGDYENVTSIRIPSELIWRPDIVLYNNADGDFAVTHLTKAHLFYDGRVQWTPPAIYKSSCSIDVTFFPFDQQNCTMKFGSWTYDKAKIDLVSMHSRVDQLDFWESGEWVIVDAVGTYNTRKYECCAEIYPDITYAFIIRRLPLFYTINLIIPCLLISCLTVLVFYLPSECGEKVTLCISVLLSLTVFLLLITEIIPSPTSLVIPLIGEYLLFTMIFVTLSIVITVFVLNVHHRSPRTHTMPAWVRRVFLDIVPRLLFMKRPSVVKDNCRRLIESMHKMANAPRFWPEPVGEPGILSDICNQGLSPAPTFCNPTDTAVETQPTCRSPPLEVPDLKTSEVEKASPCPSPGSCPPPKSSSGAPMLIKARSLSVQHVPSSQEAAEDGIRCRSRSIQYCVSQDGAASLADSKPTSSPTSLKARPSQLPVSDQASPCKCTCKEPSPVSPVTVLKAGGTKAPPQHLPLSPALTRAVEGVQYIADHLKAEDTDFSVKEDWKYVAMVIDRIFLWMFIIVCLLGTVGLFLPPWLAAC", "sequence (P12390 25-500)": "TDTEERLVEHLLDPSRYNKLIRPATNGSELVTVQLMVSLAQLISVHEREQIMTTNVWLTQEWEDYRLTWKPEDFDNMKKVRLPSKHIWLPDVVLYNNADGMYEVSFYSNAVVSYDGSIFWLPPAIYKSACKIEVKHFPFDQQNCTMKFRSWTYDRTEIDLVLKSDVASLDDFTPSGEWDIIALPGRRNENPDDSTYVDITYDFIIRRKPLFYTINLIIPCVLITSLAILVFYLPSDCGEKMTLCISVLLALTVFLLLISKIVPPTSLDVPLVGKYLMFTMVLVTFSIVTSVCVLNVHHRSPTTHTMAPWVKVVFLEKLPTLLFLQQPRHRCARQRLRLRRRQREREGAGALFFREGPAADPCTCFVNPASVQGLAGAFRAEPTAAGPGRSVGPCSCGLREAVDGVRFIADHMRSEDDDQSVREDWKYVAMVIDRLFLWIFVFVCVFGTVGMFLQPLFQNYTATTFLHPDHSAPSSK", "assay": "PDSP nicotinic receptor A4B2**", "assay_type": "binding", "excerpt": "as §1"}, "5-HT7": {"target": "5-HT7 (Homo sapiens, UniProt P34969)", "sequence (P34969 whole entry, species assumed)": "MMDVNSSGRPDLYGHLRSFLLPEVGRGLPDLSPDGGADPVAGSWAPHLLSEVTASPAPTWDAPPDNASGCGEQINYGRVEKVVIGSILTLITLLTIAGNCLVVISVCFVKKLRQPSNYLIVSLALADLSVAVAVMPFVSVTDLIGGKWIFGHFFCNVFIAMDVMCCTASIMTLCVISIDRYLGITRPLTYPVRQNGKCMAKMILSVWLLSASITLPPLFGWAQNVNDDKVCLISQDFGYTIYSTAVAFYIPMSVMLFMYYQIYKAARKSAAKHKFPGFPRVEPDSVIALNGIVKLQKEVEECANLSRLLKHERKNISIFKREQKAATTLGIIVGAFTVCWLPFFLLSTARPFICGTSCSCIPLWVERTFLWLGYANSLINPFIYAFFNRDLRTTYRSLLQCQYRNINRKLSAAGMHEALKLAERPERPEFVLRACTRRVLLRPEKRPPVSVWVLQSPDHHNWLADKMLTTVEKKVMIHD", "assay": "PDSP radioligand binding, serotonin receptor 5-HT7", "excerpt": "as §1"}, "5-HT1D": {"target": "5-HT1D (Homo sapiens, UniProt P28221)", "sequence (P28221 whole entry, species assumed)": "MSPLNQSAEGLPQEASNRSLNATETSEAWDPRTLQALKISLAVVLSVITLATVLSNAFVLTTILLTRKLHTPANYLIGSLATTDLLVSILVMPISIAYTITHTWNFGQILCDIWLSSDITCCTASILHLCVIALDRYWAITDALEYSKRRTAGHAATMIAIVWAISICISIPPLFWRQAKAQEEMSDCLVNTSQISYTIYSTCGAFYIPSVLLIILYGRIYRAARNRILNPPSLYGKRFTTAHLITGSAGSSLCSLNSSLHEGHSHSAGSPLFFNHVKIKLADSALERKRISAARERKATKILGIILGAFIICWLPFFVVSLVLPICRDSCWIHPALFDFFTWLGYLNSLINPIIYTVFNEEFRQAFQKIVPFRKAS", "assay": "PDSP radioligand binding, serotonin receptor 5-HT1D", "excerpt": "as §1"}, "Alpha1A": {"target": "T3, Alpha1A (Homo sapiens, UniProt P35348)", "T3 sequence (P35348 1-466)": "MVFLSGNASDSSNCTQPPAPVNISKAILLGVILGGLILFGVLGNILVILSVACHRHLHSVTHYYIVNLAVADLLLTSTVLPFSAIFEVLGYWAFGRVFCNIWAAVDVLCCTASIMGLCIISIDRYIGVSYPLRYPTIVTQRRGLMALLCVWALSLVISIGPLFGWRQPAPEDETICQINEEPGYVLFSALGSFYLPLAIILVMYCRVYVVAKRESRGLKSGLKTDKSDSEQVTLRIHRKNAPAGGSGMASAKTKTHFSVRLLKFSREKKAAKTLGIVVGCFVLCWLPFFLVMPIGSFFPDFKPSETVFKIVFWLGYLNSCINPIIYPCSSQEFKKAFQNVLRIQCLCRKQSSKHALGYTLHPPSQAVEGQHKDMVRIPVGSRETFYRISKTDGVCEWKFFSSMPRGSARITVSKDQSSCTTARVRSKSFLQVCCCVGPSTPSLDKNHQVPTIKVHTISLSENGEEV", "assay": "PDSP radioligand binding, adrenoceptor α1A", "excerpt": "as §1"}, "CB1": {"target": "CB1 (Homo sapiens, UniProt P21554)", "assay": "PDSP radioligand binding, cannabinoid CB-1", "excerpt": "as §1"}, "A2B4": {"target": "A2B4 (Rattus norvegicus, UniProt P12389+P12392)", "assay": "PDSP radioligand binding, nicotinic receptor α2 ß4", "excerpt": "as §1"}, "5-HT3": {"target": "T4, 5-HT3 (Homo sapiens, UniProt P46098)", "T4 sequence (P46098 24-478)": "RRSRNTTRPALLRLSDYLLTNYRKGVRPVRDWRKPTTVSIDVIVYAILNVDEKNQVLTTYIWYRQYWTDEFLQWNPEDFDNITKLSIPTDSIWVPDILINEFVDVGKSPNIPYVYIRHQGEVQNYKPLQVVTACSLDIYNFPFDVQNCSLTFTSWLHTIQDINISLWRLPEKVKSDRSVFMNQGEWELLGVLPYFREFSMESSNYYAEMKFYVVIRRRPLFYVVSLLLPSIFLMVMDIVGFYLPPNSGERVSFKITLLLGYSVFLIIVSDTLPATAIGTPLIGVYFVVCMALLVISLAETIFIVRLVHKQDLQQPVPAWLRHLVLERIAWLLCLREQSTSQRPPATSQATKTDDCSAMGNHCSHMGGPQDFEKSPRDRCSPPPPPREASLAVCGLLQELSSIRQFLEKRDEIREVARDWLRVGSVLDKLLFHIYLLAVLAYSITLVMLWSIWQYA", "assay": "PDSP radioligand binding, serotonin receptor 5-HT3", "excerpt": "as §1"}, "D3": {"target": "D3 (Homo sapiens, UniProt P35462)", "sequence (P35462 whole entry)": "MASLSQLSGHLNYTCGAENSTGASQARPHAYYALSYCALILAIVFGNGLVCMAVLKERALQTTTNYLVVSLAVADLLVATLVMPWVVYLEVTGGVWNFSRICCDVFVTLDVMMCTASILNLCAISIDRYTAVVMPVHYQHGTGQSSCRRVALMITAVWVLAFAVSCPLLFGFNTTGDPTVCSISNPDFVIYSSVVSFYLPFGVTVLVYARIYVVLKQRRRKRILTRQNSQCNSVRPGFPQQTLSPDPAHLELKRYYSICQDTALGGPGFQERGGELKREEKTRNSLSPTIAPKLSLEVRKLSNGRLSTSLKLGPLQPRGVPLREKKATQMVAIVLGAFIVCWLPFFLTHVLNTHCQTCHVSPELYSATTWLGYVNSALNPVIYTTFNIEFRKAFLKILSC", "assay": "PDSP radioligand binding, dopamine receptor D3", "excerpt": "as §1"}}, "data": [{"smiles": "CCNC1(c2cccc(OC)c2)CCCCC1=O", "note": "(racemic) [Methoxetamine, (RS)-2-(ethylamino)-2-(3-methoxyphenyl)cyclohexanone]", "values": [{"measurement": "Ki", "setting": "5-HT6", "value": "> 10", "unit": "µM"}, {"measurement": "Ki", "setting": "Beta3", "value": "> 10", "unit": "µM"}, {"measurement": "Ki", "setting": "DOR", "value": "> 10", "unit": "µM"}, {"measurement": "Ki", "setting": "Alpha2A", "value": "> 10", "unit": "µM"}, {"measurement": "Ki", "setting": "H2", "value": "> 10", "unit": "µM"}, {"measurement": "Ki", "setting": "5-ht1e", "value": "> 10", "unit": "µM"}, {"measurement": "Ki", "setting": "Sigma1", "value": "> 10", "unit": "µM"}, {"measurement": "inhibition at 10 µM", "setting": "Sigma1; 10 µM, quadruplicate, read-out: Sigma1 Primary Screen inhibition of binding", "value": "< 50", "unit": "%"}, {"measurement": "Ki", "setting": "Beta2", "value": "> 10", "unit": "µM"}, {"measurement": "Ki", "setting": "M1", "value": "> 10", "unit": "µM"}, {"measurement": "Ki", "setting": "H3", "value": "> 10", "unit": "µM"}, {"measurement": "Ki", "setting": "H4", "value": "> 10", "unit": "µM"}, {"measurement": "Ki", "setting": "A4B2", "value": "> 10", "unit": "µM"}, {"measurement": "Ki", "setting": "5-HT7", "value": "> 10", "unit": "µM"}, {"measurement": "Ki", "setting": "5-HT1D", "value": "> 10", "unit": "µM"}, {"measurement": "Ki", "setting": "Alpha1A", "value": "> 10", "unit": "µM"}, {"measurement": "Ki", "setting": "CB1", "value": "> 10", "unit": "µM"}, {"measurement": "Ki", "setting": "A2B4", "value": "> 10", "unit": "µM"}, {"measurement": "Ki", "setting": "5-HT3", "value": "> 10", "unit": "µM"}, {"measurement": "Ki", "setting": "D3", "value": "> 10", "unit": "µM"}]}, {"smiles": "COc1cccc(C2(N3CCCCC3)CCCCC2)c1", "note": "[3-MeO-PCP, 1-[1-(3-methoxyphenyl)cyclohexyl]piperidine]", "values": [{"measurement": "Ki", "setting": "5-HT6", "value": "> 10", "unit": "µM"}, {"measurement": "Ki", "setting": "Beta3", "value": "> 10", "unit": "µM"}, {"measurement": "Ki", "setting": "DOR", "value": "> 10", "unit": "µM"}, {"measurement": "Ki", "setting": "Alpha2A", "value": 0.964, "unit": "µM"}, {"measurement": "Ki", "setting": "H2", "value": 2.1, "unit": "µM"}, {"measurement": "Ki", "setting": "5-ht1e", "value": "> 10", "unit": "µM"}, {"measurement": "Ki", "setting": "Sigma1", "value": 0.042, "unit": "µM"}, {"measurement": "Ki", "setting": "Beta2", "value": "> 10", "unit": "µM"}, {"measurement": "Ki", "setting": "M1", "value": "> 10", "unit": "µM"}, {"measurement": "Ki", "setting": "H3", "value": "> 10", "unit": "µM"}, {"measurement": "Ki", "setting": "H4", "value": "> 10", "unit": "µM"}, {"measurement": "Ki", "setting": "A4B2", "value": "> 10", "unit": "µM"}, {"measurement": "Ki", "setting": "5-HT7", "value": "> 10", "unit": "µM"}, {"measurement": "Ki", "setting": "5-HT1D", "value": "> 10", "unit": "µM"}, {"measurement": "Ki", "setting": "Alpha1A", "value": "> 10", "unit": "µM"}, {"measurement": "Ki", "setting": "CB1", "value": "> 10", "unit": "µM"}, {"measurement": "Ki", "setting": "A2B4", "value": "> 10", "unit": "µM"}, {"measurement": "Ki", "setting": "5-HT3", "value": "> 10", "unit": "µM"}, {"measurement": "Ki", "setting": "D3", "value": "> 10", "unit": "µM"}]}, {"smiles": "COc1ccc(C2(N3CCCCC3)CCCCC2)cc1", "note": "[4-MeO-PCP, 1-[1-(4-methoxyphenyl)cyclohexyl]piperidine]", "values": [{"measurement": "Ki", "setting": "5-HT6", "value": "> 10", "unit": "µM"}, {"measurement": "Ki", "setting": "Beta3", "value": "> 10", "unit": "µM"}, {"measurement": "Ki", "setting": "DOR", "value": "> 10", "unit": "µM"}, {"measurement": "Ki", "setting": "Alpha2A", "value": "> 10", "unit": "µM"}, {"measurement": "Ki", "setting": "H2", "value": "> 10", "unit": "µM"}, {"measurement": "Ki", "setting": "5-ht1e", "value": "> 10", "unit": "µM"}, {"measurement": "Ki", "setting": "Sigma1", "value": 0.296, "unit": "µM"}, {"measurement": "Ki", "setting": "Beta2", "value": "> 10", "unit": "µM"}, {"measurement": "Ki", "setting": "M1", "value": "> 10", "unit": "µM"}, {"measurement": "Ki", "setting": "H3", "value": "> 10", "unit": "µM"}, {"measurement": "Ki", "setting": "H4", "value": "> 10", "unit": "µM"}, {"measurement": "Ki", "setting": "A4B2", "value": "> 10", "unit": "µM"}, {"measurement": "Ki", "setting": "5-HT7", "value": "> 10", "unit": "µM"}, {"measurement": "Ki", "setting": "5-HT1D", "value": "> 10", "unit": "µM"}, {"measurement": "Ki", "setting": "Alpha1A", "value": "> 10", "unit": "µM"}, {"measurement": "Ki", "setting": "CB1", "value": "> 10", "unit": "µM"}, {"measurement": "Ki", "setting": "A2B4", "value": "> 10", "unit": "µM"}, {"measurement": "Ki", "setting": "5-HT3", "value": "> 10", "unit": "µM"}, {"measurement": "Ki", "setting": "D3", "value": "> 10", "unit": "µM"}]}]}
